{"source": "patent US20240018480A1", "about": "“ENHANCEMENT OF EXTRACELLULAR VESICLE PRODUCTION BY LYSOSOME INHIBITOR” (ExoTop Theragnostics Inc., priority 2022, published 2024)", "key": {"[1]": {"tested_on": "human MSCs", "assay": "Intracellular acidification of MSCs, acidic organelles stained by lysotracker red", "format": "cell-based", "details": "MSCs in CDPF with lysosome inhibitor vs CCM and CDPF, FIG. 2A", "description": "(§1) Mesenchymal stem cells were seeded on the plate at a density of ˜5000 cells/cm^2 and the plate was placed in 5% CO2 humidified incubator. One day after the incubation, the culture media was aspirated to remove non-adherent cells and switched with a fresh media. The plate was incubated again. After further culturing for around 3 to 5 days, the culture media was aspirated and replaced by CDPF and/or lysosome inhibitor medium. The cells were cultured in the CDPF and/or lysosome inhibitor medium for 12, 24, or 48 hours. After the designated period of culturing, the culture media was collected and cell lysis buffer was immediately added to the cells on the plate. The collected media and cell lysate were each independently subjected to detection of the level of CD63 by ELISA and by qPCR, respectively.\nHuman MSCs were cultured in different media including complete culture medium (CCM), CDPF, and CDPF with lysosome inhibitor. The acidic organelles in live stem cells were stained by lysotracker red. […] Without lysosome inhibitor, the intracellular acidification was not suppressed."}, "[2]": {"tested_on": "human CD63 (hCD63) gene", "assay": "RT-qPCR of hCD63 gene expression in MSCs cultured in different media", "format": "cell-based", "details": "FIG. 2B", "description": "as §1\nTo compare hCD63+ expression in MSCs cultured in various media including CCM, CDPF, and CDPF with lysosome inhibitor, RT-quantitative real-time PCR (RT-qPCR) assays were performed."}, "[3]": {"tested_on": "human MSCs", "assay": "CD63 ELISA of culture media collected after culture with stem cells (secretion of EVs)", "format": "cell-based", "details": "FIG. 3A", "description": "as §1, with “5000” for “˜5000”\nTo quantitatively compare CD63+ expression in CM cultured in various media including CCM, CDPF, and CDPF with lysosome inhibitor, enzyme-linked immunosorbent (ELISA) assays were performed."}, "[4]": {"tested_on": "fatty acid synthase (FASN)", "assay": "qPCR relative quantification (RQ) of fatty acid synthase (FASN) in MSCs", "format": "cell-based, human", "details": "FIG. 3C"}, "[5]": {"details": "MSCs in CDPF with lysosome inhibitor, RT-qPCR"}}, "note": "Entries after “also recorded” stand apart in the source; their conditions may differ.", "data": [{"smiles": "CCN(CC)CCCC(C)Nc1ccnc2cc(Cl)ccc12", "note": "(stereo not drawn) [lysosome inhibitor, chloroquine]", "values": [{"measurement": "intracellular acidification of human MSCs", "setting": "[1]", "value": "suppressed"}, {"measurement": "expression of human CD63 gene in the MSCs (in words)", "setting": "[2]; CDPF with lysosome inhibitor vs CCM, CDPF, qPCR", "value": "increased; also recorded: dramatic increase"}, {"measurement": "expression of hCD63+ gene, times higher than MSCs cultured in CCM", "setting": "[2]; [5]", "value": "about 10 times"}, {"measurement": "expression of hCD63+ gene, times higher than MSCs cultured in CDPF without lysosome inhibitor", "setting": "[2]; [5]", "value": "about 5 times"}, {"measurement": "secretion of EVs (CD63-positive particles) from stem cells to the cultured media (in words)", "setting": "[3]; Ly_Inhibitor+CDPF vs CCM and CDPF, CD63 ELISA", "value": "stimulated"}, {"measurement": "EV production (CD63+ particles), times higher than MSCs cultured in CCM or in CDPF without lysosome inhibitor", "setting": "[3]; MSCs in CDPF with lysosome inhibitor, CD63 ELISA of media", "value": "about 2.3 times"}, {"measurement": "expression of FASN, times higher than MSCs cultured in CCM", "setting": "[4]; MSCs in CCM with lysosome inhibitor, RT-qPCR", "value": "about 25 times"}, {"measurement": "expression of FASN, times higher than MSCs cultured in CDPF without lysosome inhibitor", "setting": "[4]; [5]", "value": "about 5 times"}, {"measurement": "gene expression of FASN (in words)", "setting": "[4]; treatment with the inhibitor, qPCR RQ", "value": "drastically induced"}]}]}
